Data from patent US10457655B2, “Compounds and compositions for inhibition of FASN” (FORMA Therapeutics, Inc., priority 2013, dated 2019).
Where two headings read alike, the source gives them in different places.

Legend:
FASN enzyme = FASN enzyme (Homo sapiens, UniProt P49327); test: Enzymatic Assay for FASN Inhibitors; assay type: biochemical
Summary of the method: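 40 nM FASN preincubated with compound 60 min at 25° C in HEPES pH 7.3 buffer with 0.04% Triton X-100. Then 20 μM acetyl-CoA, 60 μM malonyl-CoA and 100 μM NADPH added for 90 min, quenched with CPM thiol probe; fluorescence 360/530 nm, IC50 by four-parameter fit.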

PC3 cells = test: Cell Proliferation Assays for FASN Inhibitors (PC3 cells, MTT); assay type: cell-based; conditions: Homo sapiens, PC-3, 96 h
Protocol: The effects of the FASN inhibitors on cultured cancer cell proliferation were studies with cell proliferation assays. PC3 cells were maintained at standard culture media (F12K media supplemented with 10% fetal bovine serum, 1×MEM nonessential amino acid and 1× penicillin/streptomycin). 2000-3000 cells/100 μL/well was seeded in a 96-well clear culture plate. The cells were incubated overnight in 5% CO2 at 37° C. for attachment. Cell media were removed and replaced with F12K media containing 10% lipid reduced serum and compound. The final DMSO concentration is 0.1%. The cells were maintained in 5% CO2 at 37° C. for 4 days. The viability of cells was determined by MTT assays. The IC50 of a given compound was calculated by fitting the dose response curve with a four parameter logistic equation.

[1] = read-out: IC50 (uM) < 0.5, 10% lipid reduced serum, 4 days, Table 3-1
[2] = FASN enzymatic assay, Table 2-3

FASN enzyme, sequence (P49327 whole entry): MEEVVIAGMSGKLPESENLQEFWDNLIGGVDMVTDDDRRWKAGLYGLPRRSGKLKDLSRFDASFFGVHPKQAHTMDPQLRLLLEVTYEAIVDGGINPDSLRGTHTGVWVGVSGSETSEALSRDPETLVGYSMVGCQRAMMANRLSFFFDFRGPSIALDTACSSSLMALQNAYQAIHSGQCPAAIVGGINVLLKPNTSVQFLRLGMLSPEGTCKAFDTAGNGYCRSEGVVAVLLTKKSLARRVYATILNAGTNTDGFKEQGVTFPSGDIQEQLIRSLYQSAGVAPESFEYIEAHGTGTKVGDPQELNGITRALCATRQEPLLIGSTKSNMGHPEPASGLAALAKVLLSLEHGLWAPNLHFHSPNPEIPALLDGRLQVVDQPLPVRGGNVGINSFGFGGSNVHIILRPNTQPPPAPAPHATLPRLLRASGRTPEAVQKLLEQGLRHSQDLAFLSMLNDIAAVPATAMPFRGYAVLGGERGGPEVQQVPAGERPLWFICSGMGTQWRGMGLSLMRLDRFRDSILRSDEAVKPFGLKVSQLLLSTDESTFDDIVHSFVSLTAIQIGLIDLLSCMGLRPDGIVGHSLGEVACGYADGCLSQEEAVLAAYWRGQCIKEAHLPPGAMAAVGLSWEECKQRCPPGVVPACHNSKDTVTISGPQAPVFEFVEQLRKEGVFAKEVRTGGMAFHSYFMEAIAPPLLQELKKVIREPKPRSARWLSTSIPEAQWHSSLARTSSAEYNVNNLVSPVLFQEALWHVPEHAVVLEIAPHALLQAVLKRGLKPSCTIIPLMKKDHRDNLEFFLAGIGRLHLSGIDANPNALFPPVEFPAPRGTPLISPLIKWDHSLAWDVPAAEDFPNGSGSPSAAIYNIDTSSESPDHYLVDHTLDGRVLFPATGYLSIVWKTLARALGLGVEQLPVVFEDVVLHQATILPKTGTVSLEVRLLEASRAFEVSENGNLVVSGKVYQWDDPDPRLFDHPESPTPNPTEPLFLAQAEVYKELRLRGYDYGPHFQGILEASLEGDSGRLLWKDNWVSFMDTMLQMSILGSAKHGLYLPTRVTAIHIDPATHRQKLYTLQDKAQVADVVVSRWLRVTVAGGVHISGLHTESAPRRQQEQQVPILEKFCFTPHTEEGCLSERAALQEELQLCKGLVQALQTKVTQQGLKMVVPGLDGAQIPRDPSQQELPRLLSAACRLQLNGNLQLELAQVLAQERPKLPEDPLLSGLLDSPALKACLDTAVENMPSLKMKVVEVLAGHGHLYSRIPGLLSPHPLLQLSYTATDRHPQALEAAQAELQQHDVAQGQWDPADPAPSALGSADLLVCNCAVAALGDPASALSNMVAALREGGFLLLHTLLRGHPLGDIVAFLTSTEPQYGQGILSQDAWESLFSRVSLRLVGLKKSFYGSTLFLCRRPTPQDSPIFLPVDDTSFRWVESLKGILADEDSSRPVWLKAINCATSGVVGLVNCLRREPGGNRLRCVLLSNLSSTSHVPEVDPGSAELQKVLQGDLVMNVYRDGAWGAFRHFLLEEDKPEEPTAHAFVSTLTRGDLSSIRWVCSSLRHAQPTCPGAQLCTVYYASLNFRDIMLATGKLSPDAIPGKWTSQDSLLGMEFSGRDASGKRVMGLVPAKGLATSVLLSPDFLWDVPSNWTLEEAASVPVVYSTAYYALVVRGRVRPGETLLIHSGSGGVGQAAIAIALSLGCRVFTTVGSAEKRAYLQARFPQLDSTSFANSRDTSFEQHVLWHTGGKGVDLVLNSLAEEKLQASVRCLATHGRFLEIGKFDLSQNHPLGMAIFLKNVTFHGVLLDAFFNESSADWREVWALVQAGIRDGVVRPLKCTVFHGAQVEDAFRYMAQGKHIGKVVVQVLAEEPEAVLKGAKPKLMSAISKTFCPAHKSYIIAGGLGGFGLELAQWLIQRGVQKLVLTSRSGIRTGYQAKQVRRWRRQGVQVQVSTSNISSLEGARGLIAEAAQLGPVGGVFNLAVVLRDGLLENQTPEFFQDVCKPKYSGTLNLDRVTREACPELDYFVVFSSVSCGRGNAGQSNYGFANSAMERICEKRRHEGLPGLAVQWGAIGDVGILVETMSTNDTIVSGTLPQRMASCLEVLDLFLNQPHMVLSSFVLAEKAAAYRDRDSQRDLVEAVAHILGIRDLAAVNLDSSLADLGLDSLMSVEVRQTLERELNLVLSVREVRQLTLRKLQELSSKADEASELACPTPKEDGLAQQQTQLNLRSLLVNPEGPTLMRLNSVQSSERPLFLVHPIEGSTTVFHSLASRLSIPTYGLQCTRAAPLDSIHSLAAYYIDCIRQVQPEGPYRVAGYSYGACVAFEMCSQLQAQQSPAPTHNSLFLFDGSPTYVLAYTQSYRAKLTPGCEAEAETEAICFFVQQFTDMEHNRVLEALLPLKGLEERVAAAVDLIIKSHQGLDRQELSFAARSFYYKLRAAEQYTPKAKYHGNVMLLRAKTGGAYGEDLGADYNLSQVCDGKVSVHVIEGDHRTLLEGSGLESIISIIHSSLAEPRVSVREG

SMILES | IC50 (FASN enzyme) [nM] | IC50 (PC3 cells; [1]) [µM] | also measured
O=C(c1ccc(-c2ccc3ncccc3c2)c(Cl)c1)N1CCN(C(=O)C2(O)CC2)CC1 [1-[(4-{[3-chloro-4-(quinolin-6-yl)phenyl]carbonyl}piperazin-1-yl)carbonyl]cyclopropan-1-ol] | < 500 | < 0.5 | –
COc1ccc2cc(-c3ccc(C(=O)N4CCN(C(=O)C5(O)CC5)CC4)cc3)ccc2c1 [1-[(4-{[4-(6-methoxynaphthalen-2-yl)phenyl]carbonyl}piperazin-1-yl)carbonyl]cyclopropan-1-ol] | < 500 | < 0.5 | –
Cn1cc2cc(-c3ccc(C(=O)N4CCN(C(=O)C5(O)CC5)CC4)cc3)ccc2n1 [1-[(4-{[4-(2-methyl-2H-indazol-5-yl)phenyl]carbonyl}piperazin-1-yl)carbonyl]cyclopropan-1-ol] | < 500 | < 0.5 | –
O=C(c1ccc(-c2ccc3cnccc3c2)cc1)N1CCN(C(=O)C2(O)CC2)CC1 [1-[(4-{[4-(isoquinolin-6-yl)phenyl]carbonyl}piperazin-1-yl)carbonyl]cyclopropan-1-ol] | < 500 | < 0.5 | –
O=C(c1ccc(-c2ccc(Cl)cc2F)cc1)N1CCN(C(=O)C2(O)CC2)CC1 [1-[(4-{[4-(4-chloro-2-fluorophenyl)phenyl]carbonyl}piperazin-1-yl)carbonyl]cyclopropan-1-ol] | < 500 | < 0.5 | –
Cn1ccc2cc(-c3ccc(C(=O)N4CCN(C(=O)C5(O)CC5)CC4)c(C(F)(F)F)c3)ccc21 [1-[(4-{[4-(1-methyl-1H-indol-5-yl)-2-(trifluoromethyl)phenyl]carbonyl}piperazin-1-yl)carbonyl]cyclopropan-1-ol] | < 500 | < 0.5 | –
Cc1cc(C(=O)N2CCN(C(=O)C3(O)CC3)CC2)ccc1-c1cnc2ccccc2c1 [1-[(4-{[3-methyl-4-(quinolin-3-yl)phenyl]carbonyl}piperazin-1-yl)carbonyl]cyclopropan-1-ol] | < 500 | < 0.5 | –
Cn1ncc2ccc(-c3ccc(C(=O)N4CCN(C(=O)C5(O)CC5)CC4)cc3)cc21 [1-[(4-{[4-(1-methyl-1H-indazol-6-yl)phenyl]carbonyl}piperazin-1-yl)carbonyl]cyclopropan-1-ol] | < 500 | < 0.5 | –
COc1cc(-n2cccn2)ccc1-c1ccc(C(=O)N2CCN(C(=O)C3(O)CC3)CC2)cc1 | < 500 | – | IC50 (PC3 cells; read-out: IC50 (uM) ≥ 0.5, 10% lipid reduced serum, 4 days, Table 3-2): ≥ 0.5 µM
O=C(c1ccc(-c2ccc3[nH]c(=O)ccc3c2)cc1)N1CCN(C(=O)C2(O)CC2)CC1 | – | < 0.5 | –
C[C@H]1CN(C(=O)c2ccc(-c3nc4ccc(Cl)cc4o3)cc2)CCN1C(=O)C1(O)CC1 [1-[(2S)-4-[4-(6-chloro-1,3-benzoxazol-2-yl)benzoyl]-2-methylpiperazine-1-carbonyl]cyclopropan-1-ol] | < 500 | – | –
COc1cnccc1-c1ccc(C(=O)N2CCN(C(=O)C3(O)CC3)CC2)cc1 [1-[(4-{[4-(3-methoxypyridin-4-yl)phenyl]carbonyl}piperazin-1-yl)carbonyl]cyclopropan-1-ol] | – | – | IC50 (FASN enzyme; [2]): ≥ 5000 nM
O=C(c1ccc(-c2cc(C(F)(F)F)ccc2Cl)cc1)N1CCN(C(=O)C2(O)CC2)CC1 [1-{[4-({4-[2-chloro-5-(trifluoromethyl)phenyl]phenyl}carbonyl)piperazin-1-yl]carbonyl}cyclopropan-1-ol] | – | – | IC50 (FASN enzyme; FASN enzymatic assay, Table 2-2): 500 to 5000 nM
Nc1cc(-c2cccc(-c3ccc(C(=O)N4CCN(C(=O)C5(O)CC5)CC4)c(F)c3)c2)no1 [1-(4-{4-[3-(5-amino-1,2-oxazol-3-yl)phenyl]-2-fluorobenzoyl}piperazine-1-carbonyl)cyclopropan-1-ol] | < 500 | – | –
CC1(C)CN(C(=O)C2(O)CC2)CCN1C(=O)c1ccc(-c2nc3ccc(F)cc3o2)cc1 | < 500 | – | –
O=C(c1ccc(-c2cccc(S(=O)(=O)C3CC3)c2)c(Cl)c1)N1CCN(C(=O)C2(O)CC2)CC1 | < 500 | – | –
C[C@H]1CN(C(=O)c2ccc(-c3ccc4c(c3)ncn4C)cc2)CCN1C(=O)C1(N)CC1 [1-[(2S)-2-methyl-4-[4-(1-methyl-1H-1,3-benzodiazol-5-yl)benzoyl]piperazine-1-carbonyl]cyclopropan-1-amine] | < 500 | – | –
C[C@@H]1CN(C(=O)C2(O)CC2)[C@@H](C)CN1C(=O)c1ccc(-c2ccc3cnccc3c2)cc1 | – | – | IC50 (FASN enzyme; [2]): ≥ 5000 nM
Cn1cnc2cc(-c3ccc(C(=O)N4CCN(C(=O)C5(O)CC5)[C@@H](CO)C4)cc3)ccc21 [1-[(2R)-2-(hydroxymethyl)-4-[4-(1-methyl-1H-1,3-benzodiazol-5-yl)benzoyl]piperazine-1-carbonyl]cyclopropan-1-ol] | < 500 | – | –

More lines, main results first:

IC50 (FASN enzyme) [nM] | IC50 (PC3 cells; [1]) [µM] | SMILES | also measured
< 500 | < 0.5 | N#Cc1c[nH]c2ccc(-c3ccc(C(=O)N4CCN(C(=O)C5(O)CC5)CC4)cc3)cc12 [5-[4-({4-[(1-hydroxycyclopropyl)carbonyl]piperazin-1-yl}carbonyl)phenyl]-1H-indole-3-carbonitrile] | –
< 500 | < 0.5 | O=C(c1ccc(-c2ccc3c(ccn3C(F)(F)F)c2)c(Cl)c1)N1CCN(C(=O)C2(O)CC2)CC1 [1-{[4-({3-chloro-4-[1-(trifluoromethyl)-1H-indol-5-yl]phenyl}carbonyl)piperazin-1-yl]carbonyl}cyclopropan-1-ol] | –
< 500 | < 0.5 | O=C(c1ccc(-c2ccc3cnccc3c2)cc1)N1CCN(C(=O)C2CCO2)CC1 (stereo not shown) [6-[4-({4-[(oxetan-2-yl)carbonyl]piperazin-1-yl}carbonyl)phenyl]isoquinoline] | –
< 500 | < 0.5 | O=C(c1ccc(-c2cc3ccccc3nc2O)cc1F)N1CCN(C(=O)C2(O)CC2)CC1 [3-[3-fluoro-4-({4-[(1-hydroxycyclopropyl)carbonyl]piperazin-1-yl}carbonyl)phenyl]quinolin-2-ol] | –
< 500 | < 0.5 | O=C(c1ccc(-c2cccc(NS(=O)(=O)c3ccccc3)c2)cc1)N1CCN(C(=O)C2(O)CC2)CC1 [N-{3-[4-({4-[(1-hydroxycyclopropyl)carbonyl]piperazin-1-yl}carbonyl)phenyl]phenyl}benzenesulfonamide] | –
– | < 0.5 | COc1ccc(OC(F)(F)F)cc1-c1ccc(C(=O)N2CCN(C(=O)C3(O)CC3)CC2)cc1 [1-{[4-({4-[2-methoxy-5-(trifluoromethoxy)phenyl]phenyl}carbonyl)piperazin-1-yl]carbonyl}cyclopropan-1-ol] | –
< 500 | – | O=C(c1ccc(-c2nc3ccc(F)cc3o2)cc1)N1CCN(C(=O)C2(O)CC2)CC12CC2 [1-{4-[4-(6-fluoro-1,3-benzoxazol-2-yl)benzoyl]-4,7-diazaspiro[2.5]octane-7-carbonyl}cyclopropan-1-ol] | –
< 500 | – | O=C(c1ccc(-c2ccc(Cl)cc2F)cc1F)N1CCN(C(=O)C2(O)CC2)CC1 [1-{4-[4-(4-chloro-2-fluorophenyl)-2-fluorobenzoyl]piperazine-1-carbonyl}cyclopropan-1-ol] | –
< 500 | – | O=C(c1ccc(-c2nc3ccc(F)cc3o2)c(F)c1)N1CCN(C(=O)C2(O)CC2)CC1 [1-{4-[3-fluoro-4-(6-fluoro-1,3-benzoxazol-2-yl)benzoyl]piperazine-1-carbonyl}cyclopropan-1-ol] | –
< 500 | – | O=C(c1ccc(N2CCc3cccc(F)c32)cc1)N1CCN(C(=O)C2(O)CC2)CC1 [1-{4-[4-(7-fluoro-2,3-dihydro-1H-indol-1-yl)benzoyl]piperazine-1-carbonyl}cyclopropan-1-ol] | –
